Results published in ChEMBL document CHEMBL1201862, “PubChem BioAssay data set” (2004).
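Interpolation was linear, between the two tested concentrations surrounding the appropriate level; five concentrations were tested over 48 hours in 96-well plates. The concentration for 50% growth inhibition is given as GI50.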 Active and inactive are the calls of the source. No stated cut-off is given here; in the data, active = GI50 up to about 1.1 µM and inactive = higher.

What was measured:
Assay in all cases: NCI tumour cell line growth inhibition, 48 h
[1] = tested on: SNB-75
[2] = tested on: OVCAR-4
[3] = tested on: OVCAR-3
[4] = tested on: RPMI-8226
[5] = tested on: SR
[6] = tested on: EKVX
[7] = tested on: LOX IMVI
[8] = tested on: KM12
[9] = tested on: NCI-H460
[10] = tested on: HCT-116
[11] = tested on: Hs-578T
[12] = tested on: BT-549
[13] = tested on: UACC-62
[14] = tested on: T47D
[15] = tested on: MCF7
[16] = tested on: HL-60
[17] = tested on: OVCAR-8
[18] = tested on: M14
[19] = tested on: COLO 205

Row | Structure (SMILES) | GI50 [1] | GI50 [2] | GI50 [3] | GI50 [4] | GI50 [5] | GI50 [6] | GI50 [7] | GI50 [8] | GI50 [9] | GI50 [10] | GI50 [11] | GI50 [12] | GI50 [13] | GI50 [14] | GI50 [15] | GI50 [16] | GI50 [17] | GI50 [18] | GI50 [19]
1 | CCOC(=O)C(C(=S)Nc1ccccc1)c1nn2c(=O)cc(C)nc2s1 (configuration not stated) | 16.9 µM (inactive) | 30.8 µM (inactive) | 24.5 µM (inactive) | 26.3 µM (inactive) | 25.1 µM (inactive) | 21.6 µM (inactive) | 14.4 µM (inactive) | 25.4 µM (inactive) | 31.6 µM (inactive) | 20.8 µM (inactive) | 41 µM (inactive) | 25.2 µM (inactive) | 23.7 µM (inactive) | 25.5 µM (inactive) | 19.4 µM (inactive) | 20.5 µM (inactive) | 23.6 µM (inactive) | 22.9 µM (inactive) | 20.1 µM (inactive)
2 | CC(C)=CC(=O)C[C@H]1C(=O)O[C@@H]2C[C@H]3C(C)=CC(=O)[C@@H](O)[C@]3(C)[C@H]3[C@@]4(O)OC[C@]32[C@@H]1[C@@H](C)[C@H]4O | 0.0148 µM (active) | 0.0364 µM (active) | < 0.0146 µM (active) | < 0.01 µM (active) | < 0.01 µM (active) | 0.175 µM (active) | < 0.01 µM (active) | < 0.0169 µM (active) | < 0.01 µM (active) | < 0.01 µM (active) | 0.029 µM (active) | 0.0213 µM (active) | 0.0313 µM (active) | < 0.0111 µM (active) | < 0.01 µM (active) | < 0.01 µM (active) | < 0.01 µM (active) | 0.0196 µM (active) | 0.125 µM (active)
3 | COc1ccc(-c2coc3c4c(ccc3c2=O)OCO4)cc1OC | 38.2 µM (inactive) | 22.5 µM (inactive) | 23.8 µM (inactive) | > 100 µM (inactive) | 8.87 µM (inactive) | 38.5 µM (inactive) | 98.2 µM (inactive) | 83.6 µM (inactive) | 57.8 µM (inactive) | > 100 µM (inactive) | 26.4 µM (inactive) | 14.9 µM (inactive) | 44.9 µM (inactive) | > 100 µM (inactive) | 91 µM (inactive) | 14.3 µM (inactive) | 38 µM (inactive) | > 100 µM (inactive) | > 100 µM (inactive)
4 | O=C1CC(NC2CC(=O)c3c(Br)sc(Br)c32)c2c(Br)sc(Br)c21 (configuration not stated) | 15.7 µM (inactive) | 8.51 µM (inactive) | 4.44 µM (inactive) | 0.597 µM (active) | 2.28 µM (inactive) | 3 µM (inactive) | 1.92 µM (inactive) | 1.99 µM (inactive) | 18 µM (inactive) | 2.14 µM (inactive) | 4.91 µM (inactive) | 14.1 µM (inactive) | 11.9 µM (inactive) | 2.46 µM (inactive) | 2.81 µM (inactive) | 2.46 µM (inactive) | 3.26 µM (inactive) | 5.58 µM (inactive) | 3.04 µM (inactive)
5 | Cc1ccc(/N=C2N=C(Cl)/C(=C\c3ccco3)N\2)cc1 | > 100 µM (inactive) | > 100 µM (inactive) | > 100 µM (inactive) | > 87.1 µM (inactive) | 96.8 µM (inactive) | > 100 µM (inactive) | > 100 µM (inactive) | > 100 µM (inactive) | > 100 µM (inactive) | > 100 µM (inactive) | > 100 µM (inactive) | > 100 µM (inactive) | > 100 µM (inactive) | > 100 µM (inactive) | > 100 µM (inactive) | > 100 µM (inactive) | > 100 µM (inactive) | > 100 µM (inactive) | > 100 µM (inactive)
6 | Cc1nc2ccc(S(=O)(=O)O)cc2c(=O)n1-c1ccc(C(=O)NN2C(=O)C(Cl)C2c2ccccc2O)cc1 (configuration not stated) | > 100 µM (inactive) | > 100 µM (inactive) | > 100 µM (inactive) | > 100 µM (inactive) | > 100 µM (inactive) | 60.1 µM (inactive) | > 100 µM (inactive) | > 100 µM (inactive) | – | > 100 µM (inactive) | > 100 µM (inactive) | > 100 µM (inactive) | – | > 100 µM (inactive) | > 100 µM (inactive) | > 100 µM (inactive) | > 100 µM (inactive) | > 100 µM (inactive) | > 100 µM (inactive)
7 | CCOC(=O)n1[nH]c(=O)n(-c2ccccc2)c1=O | > 100 µM (inactive) | > 100 µM (inactive) | > 100 µM (inactive) | > 100 µM (inactive) | > 100 µM (inactive) | > 100 µM (inactive) | > 100 µM (inactive) | > 100 µM (inactive) | > 100 µM (inactive) | > 100 µM (inactive) | > 100 µM (inactive) | > 100 µM (inactive) | > 100 µM (inactive) | > 100 µM (inactive) | > 100 µM (inactive) | > 100 µM (inactive) | > 100 µM (inactive) | > 100 µM (inactive) | > 100 µM (inactive)
8 | O=C(/C(=C\I)c1ccccc1)c1ccccc1 | 9.42 µM (inactive) | 6.7 µM (inactive) | 2.24 µM (inactive) | 2.48 µM (inactive) | 8.18 µM (inactive) | 18.3 µM (inactive) | 12.7 µM (inactive) | 2.71 µM (inactive) | 10.9 µM (inactive) | 11.6 µM (inactive) | 3.75 µM (inactive) | 16.3 µM (inactive) | 3.26 µM (inactive) | 4.14 µM (inactive) | 1.8 µM (inactive) | 0.458 µM (active) | 4.32 µM (inactive) | 15 µM (inactive) | 3.63 µM (inactive)
9 | C/N=c1\sc2nc(C#N)c(C#N)nc2n1C | 19 µM (inactive) | 22.9 µM (inactive) | 24.5 µM (inactive) | 44.4 µM (inactive) | > 57 µM (inactive) | 18.5 µM (inactive) | 17.8 µM (inactive) | 27.5 µM (inactive) | 19.1 µM (inactive) | 18.9 µM (inactive) | 31.1 µM (inactive) | 28.8 µM (inactive) | 18.3 µM (inactive) | 34 µM (inactive) | 18.5 µM (inactive) | 10.9 µM (inactive) | > 10 µM (inactive) | 23 µM (inactive) | 16.4 µM (inactive)
10 | CCOC(=O)/C=C(/C(=O)OCC)n1ccc(=O)n(Cc2cnnn2COCCOC(C)=O)c1=O | 41.2 µM (inactive) | 20 µM (inactive) | 14.9 µM (inactive) | 10.9 µM (inactive) | 13.4 µM (inactive) | 16.5 µM (inactive) | 17.1 µM (inactive) | 28.6 µM (inactive) | > 43 µM (inactive) | 18.9 µM (inactive) | 21 µM (inactive) | 19.5 µM (inactive) | 17.3 µM (inactive) | 9.57 µM (inactive) | 10.4 µM (inactive) | 0.018 µM (active) | 16.6 µM (inactive) | 17.1 µM (inactive) | 2.92 µM (inactive)
11 | CC(=O)OCc1ccc2oc(=O)c(C(=O)Oc3ccccc3)cc2c1 | > 100 µM (inactive) | > 100 µM (inactive) | > 100 µM (inactive) | > 100 µM (inactive) | 33.3 µM (inactive) | 37.8 µM (inactive) | > 100 µM (inactive) | > 100 µM (inactive) | 67.1 µM (inactive) | 15.6 µM (inactive) | > 100 µM (inactive) | > 100 µM (inactive) | 17.7 µM (inactive) | 17.6 µM (inactive) | 30.3 µM (inactive) | 52.1 µM (inactive) | > 100 µM (inactive) | > 100 µM (inactive) | 30.4 µM (inactive)
12 | NC1CC(=O)c2csc(Br)c21 (configuration not stated) | 23.1 µM (inactive) | 16.5 µM (inactive) | 15.3 µM (inactive) | 4.82 µM (inactive) | 5.09 µM (inactive) | 15.1 µM (inactive) | 15.6 µM (inactive) | 12.2 µM (inactive) | 20.3 µM (inactive) | 11.2 µM (inactive) | 17.4 µM (inactive) | 11.8 µM (inactive) | 16.5 µM (inactive) | 24 µM (inactive) | 21.1 µM (inactive) | 4.39 µM (inactive) | 16.6 µM (inactive) | 19.5 µM (inactive) | 16.5 µM (inactive)
13 | O=CN(O)CC(=O)O | > 100 µM (inactive) | > 100 µM (inactive) | > 100 µM (inactive) | > 100 µM (inactive) | > 100 µM (inactive) | > 100 µM (inactive) | > 100 µM (inactive) | > 100 µM (inactive) | > 100 µM (inactive) | > 100 µM (inactive) | > 100 µM (inactive) | > 100 µM (inactive) | > 100 µM (inactive) | > 100 µM (inactive) | > 100 µM (inactive) | > 100 µM (inactive) | > 100 µM (inactive) | > 100 µM (inactive) | > 100 µM (inactive)
14 | CN(C)Cc1cc(C(=O)/C=C/c2ccccc2)cc(CN(C)C)c1O | 24.9 µM (inactive) | 20.4 µM (inactive) | 18.7 µM (inactive) | 11.8 µM (inactive) | 19.7 µM (inactive) | 33.6 µM (inactive) | 5.14 µM (inactive) | 18.6 µM (inactive) | 15.9 µM (inactive) | 19.7 µM (inactive) | 36.1 µM (inactive) | 19.9 µM (inactive) | – | 30.8 µM (inactive) | 30.8 µM (inactive) | 15.5 µM (inactive) | 27 µM (inactive) | 20.7 µM (inactive) | 17.8 µM (inactive)
15 | COC(=O)NCCc1n[nH]c2c1C(=O)C=C(Nc1ccccc1OC)C2=O | 28.2 µM (inactive) | 16.8 µM (inactive) | 7.64 µM (inactive) | 20.5 µM (inactive) | 28.5 µM (inactive) | 32.8 µM (inactive) | 23 µM (inactive) | 24.8 µM (inactive) | 28.2 µM (inactive) | 18.9 µM (inactive) | 28.4 µM (inactive) | 25 µM (inactive) | 18.7 µM (inactive) | 30.1 µM (inactive) | 16 µM (inactive) | 21.8 µM (inactive) | 13.6 µM (inactive) | 16.2 µM (inactive) | 24.3 µM (inactive)
